# Article PMC10269165 (Antimicrobial Agents and Chemotherapy, 2023)
# Where two headings read alike, the source gives them in different places.
# How the values were obtained:
# [1] = system: nematode PMTs (HcPMT1, AcPMT1, AsPMT, DvPMT1, OdPMT1, TcPMT); test: Cross-inhibition of the panel of nematode PMTs (statements on all PMTs together); format: biochemical, parasitic nematodes; settings: for cross-inhibitory activity against all the five PMTs: 40 μM, AcPMT1, AsPMT, DvPMT1, OdPMT1, TcPMT; for SI values based on the IC50^Enzyme values of the PMT proteins tested: all six PMTs of Table 4
# Protocol: The chemical compounds were obtained from the National Cancer Institute/Developmental Therapeutics Program Open Chemical Repository. The library consisted of 419 compounds categorized as Natural Products Set IV (see Table S1). Compounds were individually reconstituted in molecular biology grade dimethyl sulfoxide (DMSO) from Sigma-Aldrich to a stock concentration of 10 mM and stored at −20°C until use. Initial screening was conducted using recombinant HcPMT1 protein as enzyme in the methyltransferase assay, with test compounds at a final concentration of 40 μM. The test reaction mixtures consisted of 40 μM test compound, 2.5 μL of SAM-free methyltransferase reaction buffer, 150 μM PE (pH 7.5), 120 μM SAM (pH 7.8), and 20 ng/μL of HcPMT1 protein, and the final volume made up to 50 μL with 1× transferase assay buffer. […] To the positive reaction mixture, instead of test compound, an equivalent volume of DMSO was added. In the negative-control reaction mixture, instead of HcPMT1 and test compound, equivalent volumes of 1× transferase buffer and DMSO, respectively, were added. Detection buffer (100 μL) containing fluorescence substrate was added into each reaction mixture. The reactions were prepared in triplicate wells in 96-well plates. The plates were covered in aluminum foil and incubated at room temperature with agitation for 30 min, followed by reading the fluorescence at 380EX/520EM. The mean percent inhibition (MPI) of the test compound on enzymatic activity was calculated using the following formula: MPI = ΔRFUpositive control − ΔRFUcompounds/ΔRFUpositive control × 100, where the positive control is a reaction without compound but with recombinant PMT protein and a volume of DMSO equivalent to that of compound used in test reactions; the negative control is the reaction without protein and compounds, but with volumes of dialysis buffer and DMSO equivalent to protein and compound added in the test reaction mixtures, respectively; ΔRFUpositive control represents the absolute relative fluorescence units (RFU) for the positive control, which equals RFUpositive control – RFUnegative control; and ΔRFUcompounds represents the absolute RFU value for the sample with the compounds, which equals RFUcompounds – RFUnegative control.
# Compounds that had shown more than 50% inhibition on HcPMT1 activity and had no or very low cytotoxicity against HCT-8 cells were further tested for cross-inhibitory effect against the enzymatic activity of other recombinant PMT proteins (AcPMT1, AsPMT, DvPMT1, OdPMT, and TcPMT) at 40 μM. The enzymatic assay was set up as described above, with the respective PMT protein as enzyme. Compounds that depicted cross-inhibitory activity were further tested at various concentrations to derive their half-maximal effective concentrations (EC50) using nonlinear regression analysis by GraphPad Prism software.
# [2] = system: DvPMT1+2-complemented pem1Δ/pem2Δ S. cerevisiae; test: Growth inhibition of complemented yeast; format: cell-based, Saccharomyces cerevisiae; settings: read-out: Mean growth inhibition EC50 ± SEM on complemented yeast, DvPMT1+2
# Protocol: (§1) To determine the effect of PMT inhibitors on the growth of PMT- and LacZ-complemented pem1Δpem2Δ S. cerevisiae, the yeast cells were first starved of choline as described above, and the cells were diluted to an OD600 of ~0.6. The PMT-complemented yeast cells were cultured in SG medium (3.4g/L yeast nitrogen base without amino acids, 2% galactose, 30 mg/L histidine, 100 mg/L leucine, 100 mg/L adenine, and 50 mg/L tryptophan) supplemented with 1 mM ethanolamine hydrochloride, while the LacZ-complemented yeast cells were cultured in SG medium supplemented with 1 mM choline chloride. Compounds that depicted cross-inhibitory activity against PMT proteins in vitro were added at various concentrations to the cultures. As a negative control, DMSO (at a final concentration not exceeding 2% [vol/vol]) was added to yeast cultures designated control cultures. The cultures were incubated at 30°C with shaking at 275 rpm for 4 days. On a daily basis during the course of culture, 200-μL portions of culture aliquots were taken, and their OD600s were measured using a microplate reader. In preliminary work, we had observed that the growth of PMT- and LacZ-complemented pem1Δpem2Δ S. cerevisiae plateaued at 3 to 4 days of culture. Therefore, to determine the inhibitory effect of nematode PMT inhibitors on the growth of PMT- and LacZ-complemented pem1Δpem2Δ S. cerevisiae, measurements taken on day 3 were used. The results were presented as percentage of growth rate using the following formula: PGR = growth rate (plus inhibitor)/growth rate (minus inhibitor) × 100 where the percent growth rate (PGR) is the growth rate of inhibitor-treated PMT- or LacZ- complemented Pem1Δpem2Δ S. cerevisiae, considering the growth rate of untreated PMT- or LacZ- complemented Pem1Δpem2Δ S. cerevisiae is 100%; the growth rate = ΔA600^Day 3/ΔA600^Day 0; ΔA600^Day 0 is the absolute value of A600 of PMT- or LacZ- complemented pem1Δ/pem2Δ S. cerevisiae at day 0, which equals the A600 of the culture minus the A600 of the growth medium only; ΔA600^Day 3 is the absolute value of the A600 of PMT- or LacZ complemented pem1Δ/pem2Δ S. cerevisiae at day 3, which equals the A600 of the culture at day 3 minus the A600 of growth medium only; the growth rate (plus inhibitor) is the growth rate of PMT- or -LacZ complemented pem1Δpem2Δ S. cerevisiae in the presence of test compound; and the growth rate (minus inhibitor) is the growth rate of the PMT- or LacZ complemented pem1Δ/pem2Δ S. cerevisiae in the absence of test compound, but with a volume of DMSO equal to that of compound added in the treated culture. The dose-response curves were generated with GraphPad Prism software and IC50 concentrations of the compounds in PMT- and LacZ-complemented yeast cells derived.
# [3] = system: HcPMT1+2-complemented pem1Δ/pem2Δ S. cerevisiae; test: Growth inhibition of complemented yeast; format: cell-based, Saccharomyces cerevisiae; settings: read-out: Mean growth inhibition EC50 ± SEM on complemented yeast, HcPMT1+2
# Protocol: as §1
# [4] = system: LacZ-complemented pem1Δ/pem2Δ S. cerevisiae; test: Growth inhibition of complemented yeast; format: cell-based, Saccharomyces cerevisiae; settings: for EC50: Saccharomyces cerevisiae, 72 h, read-out: Mean growth inhibition EC50 ± SEM on complemented yeast, LacZ; for effect on LacZ-expressing mutant yeast: medium with choline
# Protocol: as §1
# [5] = system: OdPMT-complemented pem1Δ/pem2Δ S. cerevisiae; test: Growth inhibition of complemented yeast; format: cell-based, Saccharomyces cerevisiae; settings: read-out: Mean growth inhibition EC50 ± SEM on complemented yeast, OdPMT
# Protocol: as §1
# [6] = system: TcPMT-complemented pem1Δ/pem2Δ S. cerevisiae; test: Growth inhibition of complemented yeast; format: cell-based, Saccharomyces cerevisiae; settings: read-out: Mean growth inhibition EC50 ± SEM on complemented yeast, TcPMT
# Protocol: as §1
# [7] = medium with ethanolamine, no choline, day 3
SMILES,cross-inhibitory activity against all the five PMTs [1],"EC50 ([2]; Saccharomyces cerevisiae, 72 h) [µM]","EC50 ([3]; Saccharomyces cerevisiae, 72 h) [µM]",EC50 [4] [µM],effect on LacZ-expressing mutant yeast [4],"EC50 ([5]; Saccharomyces cerevisiae, 72 h) [µM]","EC50 ([6]; Saccharomyces cerevisiae, 72 h) [µM]",SI values based on the IC50^Enzyme values of the PMT proteins tested [1],"EC50 [2, 7] [µM]","EC50 [3, 7] [µM]","EC50 [5, 7] [µM]","EC50 [6, 7] [µM]"
CO[C@@]12[C@H](COC(N)=O)C3=C(C(=O)C(C)=C(N)C3=O)N1C[C@H]1[C@@H]2N1C (stereo partly drawn) [NSC56410],significant cross-inhibitory activity,45.6 ± 7.61,1.48 ± 0.21,50.4 ± 13.2,no or negligible inhibitory effect,37.6 ± 4.87,45.1 ± 3.97,–,–,–,–,–
"O=c1c(O)cccc2cc(O)c(O)c(O)c12 [NSC35676, purpurogallin]",significant cross-inhibitory activity,12.9 ± 1.58,5.45 ± 0.95,6.02 ± 0.25,no or negligible inhibitory effect,3.98 ± 1.08,22.9 ± 5,> 1,–,–,–,–
COc1ccc(-c2c(C)c(C(=O)O)nc(-c3ccc4c(O)c(OC)c5c(c4n3)=NC(C)(C)N=5)c2N)c(O)c1OC [NSC62709],significant cross-inhibitory activity,–,–,–,no or negligible inhibitory effect,–,–,> 1,25.6 ± 5.07,3.03 ± 0.26,19.5 ± 2.56,29.8 ± 7.61
COc1cc(C)c2c(c1C=O)Oc1c(c(C)c(O)c3c1C(O)OC3=O)OC2=O (stereo not drawn) [NSC87511],significant cross-inhibitory activity,–,–,–,no or negligible inhibitory effect,–,–,–,17.1 ± 1.15,2.08 ± 0.29,57.9 ± 5.18,58.2 ± 7
CO[C@H]1/C=C/O[C@@]2(C)Oc3c(C)c(O)c4c(O)c(cc(O)c4c3C2=O)NC(=O)/C(C)=C\C=C\[C@H](C)[C@H](O)[C@@H](C)[C@@H](O)[C@@H](C)[C@H](OC(C)=O)[C@@H]1C [NSC133100],significant cross-inhibitory activity,–,–,–,no or negligible inhibitory effect,–,–,> 1,35.7 ± 3.67,18.7 ± 2.07,36.6 ± 8.4,60.1 ± 5.85
CO[C@@H]1/C=C\O[C@]2(C)Oc3c(C)c(O)c4c(O)c(c(CN(C)C)c(O)c4c3C2=O)NC(=O)/C(C)=C\C=C[C@@H](C)[C@@H](O)[C@H](C)[C@@H](O)[C@H](C)[C@H](OC(C)=O)[C@@H]1C [NSC145612],significant cross-inhibitory activity,–,–,–,no or negligible inhibitory effect,–,–,> 1,23 ± 2.15,8.28 ± 0.99,32.8 ± 2.64,27.2 ± 7.7
CO[C@@H]1/C=C/O[C@@]2(C)Oc3c(C)c(O)c4c(c3C2=O)C(=N[C@@H]2CC[C@@H](O)O[C@H]2C)C=C(NC(=O)/C(C)=C\C(=O)[C@@H]2C[C@@H]2[C@H](O)[C@@H](C)[C@@H](O)[C@@H](C)[C@H](OC(C)=O)[C@@H]1C)C4=O [NSC177383],significant cross-inhibitory activity,–,–,–,–,–,–,> 1,15.4 ± 1.91,6.11 ± 1.84,19.8 ± 3.9,11.8 ± 1.43
